From US7169815B2, “3-methoxybenzyl thiourea derivatives and improved lipid compositions containing same” (The United States of America as represented by the …, priority 2000, dated 2007) come the findings set out here.

One data set is described as follows: in vivo. Particulars: Artemia salina (brine shrimp), in vivo; for LC50 at 24 h: other: exposure in seawater in microplate wells. How it is done: (§1) Brine shrimp eggs (Artemia salina) were obtained from Brine Shrimp Direct, Ogden, Utah and stored at 10° C. until used. Eggs (400 mg) were added to 1 l of deionized water containing 40 g of sea salts (Sigma Chemical Co., St. Louis, Mo.).
(§2) Serial dilutions were performed in 100 μl of seawater in triplicate in the wells of a 96-well microplate to give appropriate concentrations. Control wells for both water and DMSO were included with each experiment. […] The number of non-motile, and the total number of, naupli were counted in each well using a binocular microscope (10×).

Data set [1] concerns Brine Shrimp (Artemia Salina). Put plainly: in vivo. Particulars: for toxicity against brine shrimp, in words: as Table 7 shows; for LC50: in vivo. How it is done:
as §1, §2

Data set [2] can be described thus: Solubility in refined meadowfoam seed oil (HPLC). It is filed as physicochemical. Particulars: oil or lipid, thermodynamic from solid, cooled to room temperature overnight. How it is done: Typical retention times were 7–9 min for the thioureas. Samples were weighed accurately (about 0.1 g) into 1.00 g of refined meadowfoam seed oil and heated to temperature (either 30° C. or 50° C.) for 4 h with occasional shaking. The samples were cooled to room temperature overnight, centrifuged and 0.3 g of the supernatant oil was removed and diluted with 1 ml CHCl3 for testing.

The nature of data set [3]: Decomposition temperature by differential scanning calorimetry. Particulars: DSC, onset of decrease in slope of temperature-heat flow curve; unit not given (scans in ° C.). It is filed as physicochemical. The protocol:
A dual cell Perkin Elmer differential scanning calorimeter (PE DSC 7, Norwalk, Conn.) was used to determine the thermal transitions of the compounds. All scans were carried out from 30° C. to 200° C. at a heating and cooling rate of 10° C./minute and 40° C./min, respectively, except for 1-(3-methoxybenzyl)-3-(1-propenyl) thiourea, for which the scans were carried out from 0° C. to 200° C. at a heating rate of 10° C./min, and 1-(3-methoxybenzyl)-3-octadecyl thiourea, for which both the heating and cooling rates were 10° C./min. 1,3-di(3-methoxybenzyl) thiourea and 1-(3-methoxybenzyl)-3-dodecyl thiourea were heated to 300° C., and 1-(3-methoxybenzyl)-3-(4-methoxybenzoyl) thiourea was heated to 250° C. to determine the decomposition temperature. The decomposition temperature was taken as the onset of a decrease in the slope of the temperature-heat flow DSC curve. The first heating curve was recorded in all cases, and liquid nitrogen was used to quench the samples after the first heating.
(In general: Differential scanning calorimetry records heat flow against a reference as temperature is scanned.)

Data set [4] in a line: Oxidative Stability by Rotating Pressure Vessel (RBOT) of refined meadowfoam seed oil plus thiourea compounds. Particulars: for Oxidative Stability (RBOT): Refined Meadowfoam Seed Oil plus 0.1% compound; for Oxidative stability in the RBOT test, in words: addition of 0.1% compound. The source says:
Another presently preferred method of determining oxidative stability of lipids and oils employs the Oxidative Stability by Rotating Pressure Vessel (RBOT) test. In this test, oxidative stability, determined according to the ASTM D2272-98 test method (ASTM, 2001, “Standard Test Method for Oxidation Stability of Steam Turbine Oils by Rotating Pressure Vessel,” in Book of Standards, Vol. 05.01., American Society for Testing and Materials, West Conshohocken, Pa.), measures the time for oxygen pressure to decrease in a closed stainless steel vessel containing a lipid or oil when heated with a copper coil catalyst. Oxygen taken up by the lipid or oil during the reaction is an indication of oil degradation.
In these experiments, Oxidative Stability by Rotating Pressure Vessel (RBOT) tests were performed with different 3-methoxybenzyl thiourea compounds synthesized in Example 3 that were mixed in different quantities with different mono- and polyunsaturated vegetable oils. Hexane was used to clean and store the copper coils, but all other aspects of the Oxidative Stability by Rotating Pressure Vessel (RBOT) test were the same as in the standard ASTM D2272–98 test method (ASTM, 2001, “Standard Test Method for Oxidation Stability of Steam Turbine Oils by Rotating Pressure Vessel,” in Book of Standards, Vol. 05.01., American Society for Testing and Materials, West Conshohocken, Pa.).

The nature of data set [5]: UVB and UVA molar absorptivities in chloroform. It is filed as physicochemical. Particulars: 0.01 mg/ml in chloroform; for UVBMAX Molar Absorptivity: Amax in 280–320 nm; for UVAMAX Molar Absorptivity: Amax in 320–400 nm. How it is done:
The compounds synthesized in Example 3 were tested to determine their ability to absorb […] UVA light. UV spectra of quantitatively weighed and diluted samples (0.01 mg/ml) in chloroform were scanned from 244–450 nm at 240 nm/min on a Beckman DU 640 spectrophotometer (Beckman Coulter, Inc., Fullerton, Calif.). Amax in the 280–320 nm range was determined and converted to molar absorptivity for the UVB region, and Amax in the 320–400 nm range was determined and converted to molar absorptivity for the UVA region.

Data set [6] is described as follows: Behaviour on addition of water to DMSO solution (sample preparation). Particulars: dissolved in 50 μl DMSO, water added to make 1 mg/ml. It is filed as physicochemical. The protocol:
Test compounds (1–2 mg) were originally made up at a concentration of 1 mg/ml in artificial seawater, except for water insoluble compounds, which were dissolved in 50 μl of dimethyl sulfoxide (DMSO) prior to adding enough water to make a 1 mg/ml solution. Serial dilutions were performed in 100 μl of seawater in triplicate in the wells of a 96-well microplate to give appropriate concentrations. Control wells for both water and DMSO were included with each experiment. A 100 μl solution of naupli (10–30) was added to each well, and the covered plate was incubated for 24 h at 27° C. The number of non-motile, and the total number of, naupli were counted in each well using a binocular microscope (10×). LC50 values were then calculated by Probit analysis (Finney, D. J., 1971, “Probit Analysis,” 3rd Ed.; University Press: Cambridge [Eng.]).

The mark [7] stands for this setting: heated to 30° C. for 4 h, read-out: Solubility at 30° C.
Setting [8] is: heated to 50° C. for 4 h, read-out: Solubility at 50° C.

In brackets after ≈: the same amount, converted by molar mass. Like-named read-outs stand apart in the source and are kept apart here.

By LC50 is commonly meant the concentration that kills 50% of the test population. A lower LC50 goes with greater toxicity. The term solubility denotes the concentration that dissolves in the medium under given conditions. Take `C=CCNC(=S)NCc1cccc(OC)c1`: in the data set “in vivo”, the LC50 was 232 µg/mL (≈ 982 µM). Also, the “toxicity against brine shrimp, in words” value in data set [1] is reported as “low toxicity”. Also, the solubility at 4 h in data set [2] (setting [7]) was 1670 µg/mL (≈ 7070 µM); in data set [2] (setting [8]), 981 µg/mL (≈ 4150 µM). This compound also yielded a Decomposition Temperature in data set [3] of more than 200 °C. For the same compound, the “Oxidative Stability (RBOT)” value in data set [4] stood at 24 min. Also, the “UVBMAX Molar Absorptivity” value in data set [5] amounted to 2852. Also, the “UVAMAX Molar Absorptivity” value in data set [5] came to 0.0.
In the data set “in vivo”, `COc1ccc(C(=O)NC(=S)NCc2cccc(OC)c2)cc1` [1-(3-methoxybenzyl)-3-(4-methoxybenzoyl) thiourea] yielded an LC50 at 24 h of 58 µg/mL (≈ 176 µM). Further, the solubility at 4 h in data set [2] (setting [7]) is 2760 µg/mL (≈ 8350 µM); in data set [2] (setting [8]), 1930 µg/mL (≈ 5830 µM). Besides, in data set [3], the Decomposition Temperature is more than 200 °C. Also, the “Oxidative Stability (RBOT)” value in data set [4] was found to be 24 min. For the same compound, the “UVBMAX Molar Absorptivity” value in data set [5] is listed as 34090. Moreover, the “UVAMAX Molar Absorptivity” value in data set [5] is recorded as 1420.
As to `COc1cccc(CNC(=S)NCc2ccccc2)c1` [1-(3-methoxybenzyl)-3-benzyl thiourea], in the data set “in vivo”, the LC50 at 24 h came out at 31.6 µg/mL (≈ 110 µM). Moreover, in data set [2] (setting [7]), the solubility at 4 h was 1050 µg/mL (≈ 3670 µM). Besides, the solubility at 4 h in data set [2] (setting [8]) amounted to 1040 µg/mL (≈ 3620 µM). For the same compound, the Decomposition Temperature in data set [3] was more than 200 °C. The “Oxidative Stability (RBOT)” value in data set [4] is 26 min. In addition, in data set [5], the “UVBMAX Molar Absorptivity” value amounted to 2357 and the “UVAMAX Molar Absorptivity” value was 0.0.
As for `CCCCCCCCCCCCNC(=S)NCc1cccc(OC)c1` [1-(3-methoxybenzyl)-3-dodecyl thiourea], the LC50 at 24 h in “in vivo” was found to be 3.8 µg/mL (≈ 10.4 µM). In addition, the “toxicity against brine shrimp, in words” value in data set [1] is listed as “high enough to consider its use in therapeutic tests for killing cancer cells”. The solubility at 4 h in data set [2] (setting [7]) was 1040 µg/mL (≈ 2860 µM). The solubility at 4 h in data set [2] (setting [8]) was determined as 909 µg/mL (≈ 2490 µM). The compound also returned a Decomposition Temperature in data set [3] of 273 °C. For the same compound, in data set [4], the “Oxidative Stability (RBOT)” value came to 41 min and the “Oxidative stability in the RBOT test, in words” value is reported as “doubled”. Also, in data set [6], the “behaviour upon the addition of water” value is on record as “precipitated out of solution”. Besides, in data set [5], the “UVBMAX Molar Absorptivity” value was found to be 2625 and the “UVAMAX Molar Absorptivity” value is 0.0.
Turning to `CCCCCCCCCCCCCCCCCCNC(=S)NCc1cccc(OC)c1` [1-(3-methoxybenzyl)-3-octadecyl thiourea], the LC50 at 24 h in “in vivo” was found to be 62.5 µg/mL (≈ 139 µM). In addition, the solubility at 4 h in data set [2] (setting [7]) worked out at 280 µg/mL (≈ 624 µM). The solubility at 4 h in data set [2] (setting [8]) is 147 µg/mL (≈ 328 µM). Moreover, the Decomposition Temperature in data set [3] was more than 200 °C. Also, in data set [4], the “Oxidative Stability (RBOT)” value came out at 15 min. Also, the “behaviour upon the addition of water” value in data set [6] was “precipitated out of solution”. Also, in data set [5], the “UVBMAX Molar Absorptivity” value was determined as 850 and the “UVAMAX Molar Absorptivity” value was 0.0.
Regarding `CCCCCCCCNC(=S)NCc1cccc(OC)c1` [1-(3-methoxybenzyl)-3-octyl thiourea], the LC50 at 24 h in the data set “in vivo” turned out to be 240 µg/mL (≈ 778 µM). The “toxicity against brine shrimp, in words” value in data set [1] was “low toxicity”. For the same compound, in data set [2] (setting [7]), the solubility at 4 h amounted to 3070 µg/mL (≈ 9950 µM). For the same compound, the solubility at 4 h in data set [2] (setting [8]) was found to be 2490 µg/mL (≈ 8070 µM). For the same compound, the Decomposition Temperature in data set [3] was more than 200 °C. In data set [4], the “Oxidative Stability (RBOT)” value is 43 min and the “Oxidative stability in the RBOT test, in words” value is listed as “doubled”. In data set [6], the “behaviour upon the addition of water” value was “precipitated out of solution”. Besides, in data set [5], the “UVBMAX Molar Absorptivity” value is 2999 and the “UVAMAX Molar Absorptivity” value was determined as 0.0.
For the compound `Cc1c(C)c2c(c(C)c1O)CC[C@@](C)(CCC[C@H](C)CCC[C@H](C)CCCC(C)C)O2` [D-α-tocopherol, reference compound], the LC50 in data set [1] was more than 1000 µg/mL.
In data set [1], `COc1ccc(O)c(C(C)(C)C)c1` [butylated hydroxy aniline (BHA), butylated hydroxy aniline, reference compound] registered an LC50 of 12.2 µg/mL (≈ 67.7 µM).
